Measured values from patent US20080255217A1, “PREVENTIVE OR THERAPEUTIC AGENT FOR CARDIAC DYSFUNCTION OR MYOCARDIAL INJURY CAUSED BY ISCHEMIA OR ISCHEMIA REPERFUSION” (SANWA KAGAKU KENKYUSHO CO., LTD., priority 2005, published 2008).

Legend:
[1] = drug development ceased; cited from earlier work
[2] = tested on: diabetic cardiomyopathy patients; settings: Johnson B F: Diabetes Care 27,448, 2004; cited from earlier work
[3] = tested on: hearts of human aldose reductase (AR) transgenic mice (hAR-TG); experiment: Isolated heart (Langendorff) ischemia-reperfusion, hAR-TG mice; parameters: species or system mouse; settings: for increase in LVEDP: FIG. 5; for reduction in +dP/dt max: FIG. 6; for release of CK into a perfusion solution: FIG. 7; for decrease in a myocardial ATP content: after 60 minutes reperfusion, FIG. 8
Description: In the present invention, not only wild-type mice, but also human aldose reductase (AR) transgenic mice (hAR-TG) which was produced so as to overexpress human-type AR genetically in a mouse, were used for predicting effectiveness in humans which is significant for the development of such a therapeutic agent. As a control for comparison with SNK-860, epalrestat and zopolrestat were used.
(§1) In an experimental test, hearts of 7 to 9 week-old wild-type mice (BDF-1) and hAR-TG were used. From these mice, hearts were isolated under anesthesia of pentobarbital 50 mg/kg i.p., and were placed in ice-cold saline. The isolated hearts were perfused for 20 minutes at a perfusion pressure of 70 mmHg with the Langendorff apparatus (Model IH-1 Type 844, HUGO SACHS ELEKTRONIK, Germany), and was stabilized. Thereafter, after perfusion for 30 minutes under heart function measurement, perfusion solution was completely stopped for 30 minutes, and reperfusion was performed for further 60 minutes, thereby, ischemia-ischemia reperfusion loading was performed. As perfusion solution, Krebs-Henseleit (KH) buffer containing 5.55 mM glucose and 2 mM Na-pyruvate was used. Cardiac performance was assessed by a left ventricular end-diastolic pressure (LVEDP) and peak first derivative of left ventricular systolic pressure (+dP/dt max). These were measured with a pressure transducer connected with a balloon inserted into a left ventricle in condition of hearts paced at 3 volt, 420 beats/min with an electrode placed on the top of a right ventricle, and data thereof were calculated with a four cannel recording device (OMUNIACE RT-3300, NEC, Japan). An AR inhibitor was added to the perfusion solution for 10 minutes from 15 minutes before global ischemia initiation as shown in FIG. 1. Each inhibitor (1 μM SNK-860: SNK, 1-10 μM zopolrestat: ZOP, 10 μM epalrestat: EPA) was dissolved in DMSO, and a DMSO final concentration in a perfusion solution was adjusted to 0.05%. DMSO of the same concentration was also added to a perfusion solution of a control experiment. Cardiomyocytes injury was determined using as an index the release of total creatinine kinase (CK) for 60-min reperfusion, and a myocardial ATP content after 60 minutes reperfusion was determined by the bioluminescence method (Sigma-Aldrich, St. Louis, Mo.) using luciferase, respectively.
For hAR-TG mice, littermates (LM: hAR non-expression litter mouse) were used as control mice without drug treatment.

[4] = tested on: hearts of wild-type mice (BDF-1); experiment: Isolated heart (Langendorff) ischemia-reperfusion, wild-type mice; parameters: species or system mouse; settings: for deterioration of the cardiac performance and destruction of cardiac muscle due to an ischemia reperfusion injury in a heart: discussion summary of wild-type and hAR-TG results; for increase of left ventricular end-diastolic pressure (LVEDP) after ischemia reperfusion: 1 μM in perfusion solution, FIG. 2; for release of CK from cardiomyocytes: 60-min reperfusion, FIG. 4
Description: as §1

[5] = target: aldose reductase (Homo sapiens, UniProt P15121); experiment: Aldose reductase inhibitory activity; type: biochemical; settings: background statement
[6] = wild-type mice, isolated heart, 1 μM

Row | Structure (SMILES) | manifestation of side effects [1] | cardiac performance of diabetic cardiomyopathy patients [2] | increase in LVEDP ([3]; 10 μM) | reduction in +dP/dt max ([3]; 10 μM) | release of CK into a perfusion solution ([3]; 10 μM) | decrease in a myocardial ATP content ([3]; 10 μM) | deterioration of the cardiac performance and destruction of cardiac muscle due to an ischemia reperfusion injury in a heart ([4]; high concentration) | increase of left ventricular end-diastolic pressure (LVEDP) after ischemia reperfusion ([4]; wild-type mice, isolated heart) | release of CK from cardiomyocytes [4, 6] | aldose reductase inhibitory activity [5] | increase in LVEDP ([3]; 1 μM) | reduction in +dP/dt max ([3]; 1 μM) | release of CK into a perfusion solution ([3]; 1 μM) | decrease in a myocardial ATP content ([3]; 1 μM) | deterioration of the cardiac performance and destruction of cardiac muscle due to an ischemia reperfusion injury in a heart ([4]; lower concentration, non-diabetic state) | reduction in peak first derivative of left ventricular systolic pressure (+dP/dt max) immediately after reperfusion ([4]; wild-type mice, isolated heart, 1 μM, FIG. 3)
1 | O=C(O)Cc1nn(Cc2nc3cc(C(F)(F)F)ccc3s2)c(=O)c2ccccc12 [zopolrestat] | hepatic disorders | improves the cardiac performance | significant improvement | significant improvement | significant improvement was not observed | significant improvement was not observed | only the partial effect | significantly improved | no effect | – | – | – | – | – | – | –
2 | NC(=O)[C@@H]1C[C@]2(NC(=O)NC2=O)c2cc(F)ccc2O1 [SNK-860, (2S,4S)-6-fluoro-2′,5′-dioxospiro[chroman-4,4′-imidazolidine]-2-carboxamide] | – | – | – | – | – | – | – | significantly improved | significant reduction | strong aldose reductase inhibitory activity | significant improvement | significant improvement | equivalent improvement effect to that of the 10 μM epalrestat-addition group | equivalent improvement effect to that of the 10 μM epalrestat-addition group | completely inhibited | the most remarkable effect
